Laboratory results from paper PMC12867150, “A fungi-derived cyclic peptide enhances Th9-mediated antitumor immunity by targeting ZAP70 and SREBP1” (The Journal of Clinical Investigation, 2025).
“And” between values parts separate entries of the source, which are not always exact repeats. Equal values may be shown once.

Legend:
[1] = Body weight after ACT (S1A); type: in vivo, mouse; details: EpA-Th9 therapy vs control; result in words
Protocol: C57BL/6 mice were subcutaneously injected with 5 × 10^5 B16-OVA melanoma cells. Five days after tumor implantation, mice received an intravenous infusion of 2 × 10^6 in vitro–differentiated Th9 cells (cultured for 5 days), which were derived from OT-II CD45.1 donor mice, accompanied by 4 × 10^5 OVA peptide–pulsed DCs via the tail vein. To enhance T cell engraftment and facilitate lymphodepletion, a single intraperitoneal injection of cyclophosphamide (200 mg/kg, Sigma, catalog C0768) was administered 1 day prior to T cell transfer. Mice were euthanized at designated time points for the collection and analysis of spleens, tumor-draining lymph nodes, and tumor tissues.
Days after ACT Days after ACT
Figure S1. EpA enhances immune responses.
(A) Body weight of mice after ACT in PBS, control, and EpA-treated groups. (B) Serum IL-6 levels after ACT, measured by ELISA on days 5, 10, 15, and 20. (C–E) Representative flow-cytometric plots showing transferred CD45.1⁺ OT-II Th9 cells in spleens (C), tumor-draining lymph nodes (LNs) (D), and tumors (E); frequencies Figure S1 and absolute numbers of CD45.1⁺ OT-II Th9 cells in LNs are quantified in (D). (F–
I) Representative flow-cytometric plots of endogenous CD4⁺ and CD8⁺ T cells in spleens (F), LNs (G), and tumors (H); frequencies and absolute numbers of endogenous CD4⁺ (G) and CD8⁺ (I) T cells in LNs are quantified. […]

Th9 cells = assay: Seahorse extracellular acidification rate, glycolysis stress test (Figure 4B-D); type: cell-based, mouse; design: basal glycolysis of seahorse extracellular flux: unit not given here
Protocol: After stimulation, cells were washed, resuspended in Seahorse XF assay medium (Agilent Technologies; pH 7.40–7.45, catalog 103576-100) and seeded at 5 × 10^5 cells per well in Seahorse XF96 microplates. Plates were centrifuged at 400 × g for 5 minutes to promote adherence and monolayer formation, and all conditions were tested in quadruplicate.
Glycolytic activity was measured on a Seahorse XFe96 Extracellular Flux Analyzer (Agilent Technologies) using the XFe96 Glycolysis Stress Test kit (Agilent Technologies, catalog 103020-100) per the manufacturer’s instructions. Sequential injections of glucose (10 mM), oligomycin (1 μM), and 2-deoxyglucose (2-DG; 50 mM) were administered to determine ECAR as a proxy for glycolytic function. A glycolytic index was calculated from ECAR values obtained before and after each injection.

phosphorylated ZAP70 = assay: Flow cytometry of phosphorylated ZAP70 in Th9 cells (Figure 5E); type: cell-based, mouse; details: 30 minutes after activation; result in words
Protocol: Details regarding staining panels (human and mouse), reagents (including clones and catalog numbers), acquisition settings, compensation/controls, and analysis procedures are provided in Supplemental Methods.
BioLegend, Cat. No. 422301 or Mouse TruStain FcX™, BioLegend, Cat. No. 101319) for 10 minutes at 4°C. For surface marker detection, cells were stained with fluorochrome-conjugated monoclonal antibodies in 96-well V-bottom plates and incubated on ice for 30 minutes. After staining, cells were washed twice and resuspended in FACS buffer for analysis.
Prior to intracellular cytokine staining, cells were restimulated for 4 hours with PMA (Absin, Cat. No. abs9107), ionomycin (Sigma-Aldrich, Cat. No. I0634), and brefeldin A (MedChemExpress, Cat. No. HY-16592). For intracellular cytokine staining, cells were first surface-stained as described above, then fixed and permeabilized using the BD Cytofix/Cytoperm™ kit (BD Biosciences, Cat. No. 554714) according to the manufacturer ’s protocol. Intracellular proteins were stained with directly conjugated antibodies targeting IL-9, IL-17a, IL-4, IFN-γ, TNF-α, FOXP3, p-ZAP70, Perforin, and […]
Antibodies used for mouse samples included those against IL-9 (PE, clone RM9A4, Biolegend, Cat. No. 514104), IFN-γ (PE, clone XMG1.2, Biolegend, Cat. No.
Cat. No. 103138), CD4 (APC/Cy7, clone E-AB-F1353UJ, Elabscience, Cat. No. […]

[2] = EpA 10 μM, 4 days, result in words

Which results are given for anteiso-C15 Leu7 surfactin [EpA]?
body weight [1]: No significant differences; basal and maximal ECAR (Th9 cells; [2]): significantly elevated; extracellular acidification rate (ECAR) (Th9 cells; [2]): marked increase; basal glycolysis of seahorse extracellular flux (Th9 cells; Figure 4C, individual replicates, n = 6): 3.18 and 3.13 and 4.92 and 4.79 and 3.98 and 4.85; max glycolytic capacity of seahorse extracellular flux (Th9 cells; Figure 4D, individual replicates, n = 6, in mpH/min (unit assumed)): 34.82 and 36.26 and 48.55 and 43.93 and 34.44 and 51.9; ZAP70 phosphorylation (phosphorylated ZAP70): significantly enhanced ZAP70 phosphorylation
